According to patent US7622475B2, “EP2 agonists” (Pfizer Inc, priority 2006, dated 2009):

Columns and labels:
[1] = tested on: ocular hypertensive non-human primates; test: IOP change after topical application in ocular hypertensive non-human primates; format: in vivo; details: for change in vivo at 0.1 %: Primates, read-out: ΔΔEmax (%); for ΔΔEmax (mm Hg): dosed hypertensive eye vs vehicle
Experimental: Tables 2 and 3 describe the intraocular pressure (IOP) changes that were seen following topical application of EP2 agonists in ocular hypertensive non-human primates. Typically, compounds in suitable formulations were dosed topically and IOP was measured using tonometry. Changes in IOP between vehicle treatment followed by treatment with EP2 compounds were assessed over time in the dosed hypertensive eye. ΔΔ Emax reflects the difference in IOP from EP2 compound-treated eye over that seen for vehicle-treated eye at the timepoint wherein maximum IOP reduction for compound was seen. The percent ΔΔ Emax was the percentage change in IOP reduction conferred by compound over that for vehicle (set at 100%). Tmax represents the time point at which maximum IOP reduction of compound was observed. […] NS represents not significant. Table 2 compares acids of EP2 compound while Table 3 compares IOP response seen with esters of certain acids. Esters provide better corneal penetration and improved drug exposure in the anterior chamber compared to acids and are therefore dosed at ⅕th the dose for acids […].

[2] = target: EP2 (Homo sapiens, UniProt P43116); test: EP2 cAMP EC50 (Table 1); format: cell-based
EP2, sequence (P43116 whole entry): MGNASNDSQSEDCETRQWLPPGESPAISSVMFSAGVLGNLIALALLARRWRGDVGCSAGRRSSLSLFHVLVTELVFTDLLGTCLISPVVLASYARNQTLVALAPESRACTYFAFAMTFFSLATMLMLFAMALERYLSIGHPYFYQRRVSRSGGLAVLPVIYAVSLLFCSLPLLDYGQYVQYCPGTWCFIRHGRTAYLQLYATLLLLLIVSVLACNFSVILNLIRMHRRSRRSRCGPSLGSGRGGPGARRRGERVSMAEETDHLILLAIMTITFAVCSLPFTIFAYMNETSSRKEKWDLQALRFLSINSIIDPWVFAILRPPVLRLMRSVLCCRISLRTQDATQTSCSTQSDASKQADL

[3] = target: T1, prostaglandin E2 type 2 (EP2) receptors (Homo sapiens, UniProt P43116); test: Assay for binding to prostaglandin E2 receptors (3H-prostaglandin E2 displacement, membranes of transfected cells); details: displacement of 3H-prostaglandin E2
T1 construct: expressed in transfected cells
T1 sequence (P43116 whole entry): as above
Experimental: All operations are performed at 4° C. […] These are lysed by sonification with a Branson Sonifier (Model #250, Branson Ultrasonics Corporation, Danbury, Conn.) in 2 fifteen second bursts. Unlysed cells and debris are removed by centrifugation at 100×g for 10 min. Membranes are then harvested by centrifugation at 45,000×g for 30 minutes. Pelleted membranes are resuspended to 3-10 mg protein per ml, protein concentration being determined according to the method of Bradford [Bradford, M., Anal. Biochem., 72, 248 (1976)]. Resuspended membranes are then stored frozen at −80° C. until use.
Frozen membranes as prepared are thawed and diluted to 1 mg protein per ml in Buffer A. One volume of membrane preparation is combined with 0.05 volume test compound or buffer and one volume of 3 nM 3H-prostaglandin E2 (#TRK 431, Amersham, Arlington Heights, Ill.) in Buffer A. The mixture (205 μL total volume) is incubated for 1 hour at 25° C. The membranes are then recovered by filtration through type GF/C glass fiber filters (#1 205401, Wallac, Gaithersburg, Md.) using a Tomtec harvester (Model Mach II/96, Tomtec, Orange, Conn.). The membranes with bound 3H-prostaglandin E2 are trapped by the filter, the buffer and unbound 3H-prostaglandin E2 pass through the filter into waste. Each sample is then washed 3 times with 3 ml of [50 mM Tris-HCl (pH 7.4), 10 mM MgCl2, 1 mM EDTA]. The filters are then dried by heating in a microwave oven. To determine the amount of 3H-prostaglandin bound to the membranes, the dried filters are placed into plastic bags with scintillation fluid and counted in a LKB 1205 Betaplate reader (Wallac, Gaithersburg, Md.). IC50s are determined from the concentration of test compound required to displace 50% of the specifically bound 3H-prostaglandin E2.

[4] = tested on: glaucomatous dogs; test: IOP change after topical instillation in glaucomatous dogs; format: in vivo; details: single 50 μl drop, @ 6 h, drawing 64 […] ([…]), drawing 65 0.1 mg/ml (0.01%)
Experimental: Typically, compounds in suitable formulations were dosed topically and IOP was measured using tonometry. A single 50 μl drop containing either vehicle or drug was instilled in each eye of glaucomatous dogs and IOP was measured at 1, 2, 4, and 6 hours post dose. A baseline IOP measurement was taken prior to topical instillation of vehicle or drug. Changes in IOP between vehicle treatment followed by treatment with EP2 compounds were assessed over time in the glaucomatous dogs. ΔΔ Emax reflects the difference in IOP±standard error from EP2 compound-treated eye over that seen for vehicle-treated eye at the time point wherein maximum IOP reduction for compound was seen. The percent ΔΔ Emax was the percentage change in IOP reduction conferred by compound over that for vehicle (set at 100%).

[5] = Solid form by powder X-ray diffraction; format: physicochemical; details: FIG. 1
Experimental: During analysis, the samples were analyzed from angles of 4 to 40 degrees (θ-2θ) using a scan time of 60 seconds and a scan spot size of 0.5 mm.
The X-Ray diffraction peaks, characterized by peak positions and intensity assignments, have been extracted from the X-ray powder diffractogram of Example 1 and comparative compound 12. One of skill in the art will appreciate that the peak positions (2θ) will show some inter-apparatus variability, typically as much as 0.1 degrees. Accordingly, where peak positions (2θ) are reported, one of skill in the art will recognize that such numbers are intended to encompass such inter-apparatus variability.

[6] = topical, acid EP2 agonists, Conc 0.1 %, topical, vs vehicle (set at 100%)
[7] = acid EP2 agonists, Conc 0.1 %, topical
[8] = acid EP2 agonists, Conc 0.1 %, time point of maximum IOP reduction
[9] = acid EP2 agonists, Conc 0.1 %, topical, vs vehicle (set at 100%)
[10] = isopropylesters, OHT primates, time point of maximum IOP reduction

## CS(=O)(=O)N(CCCc1nc(C(=O)O)cs1)CCOc1cc(Cl)cc(Cl)c1
[1]; [6]
  change in vivo at 0.1 %: -8%
[1]; [7]
  ΔΔEmax (mm Hg): −4.3 mm Hg
[1]; [8]
  Tmax: 2 h

## O=C(O)COc1cccc(CN(Cc2ccc(-n3cccn3)cc2)S(=O)(=O)c2cccnc2)c1 [drawing 52]
[1]; [7]
  ΔΔEmax (mm Hg): −7.0 mm Hg
[1]; [9]
  ΔΔEmax (%): −21%
[1]; [8]
  Tmax: 4 h

## CC(C)OC(=O)c1ccc(CCCN(CCCOc2cc(Cl)cc(Cl)c2)S(C)(=O)=O)s1 [Example 2]
[2]
  EC50: 8.15 nM
[3]
  IC50: 3.22 nM

## CC(C)OC(=O)Cc1cccc(CN(Cc2ccc(-c3ncccn3)cc2)S(=O)(=O)c2cccnc2)c1 [Example 17]
[2]
  EC50: 7.8 nM
[3]
  IC50: 3.9 nM

## CC(C)OC(=O)CCCCCCN(CCCc1cc(Cl)cc(Cl)c1)S(C)(=O)=O [Example 6]
[2]
  EC50: 7 nM
[3]
  IC50: 6.6 nM

## O=C(O)CCc1cccc(CN(Cc2ccc(-c3cncnc3)cc2)S(=O)(=O)c2ccccn2)c1
[1]; [7]
  ΔΔEmax (mm Hg): ns
[1]; [9]
  ΔΔEmax (%): ns

## COC(=O)COc1cccc(CN(Cc2ccc(-n3cccn3)cc2)S(=O)(=O)c2cccnc2)c1 [Example 3]
[2]
  EC50: 1.48 nM
[3]
  IC50: 10 nM

## CC(C)OC(=O)CCc1cccc(CN(Cc2ccc(-c3ncccn3)cc2)S(=O)(=O)c2ccc(Cl)cc2)c1 [Example 22]
[2]
  EC50: 3.3 nM
[3]
  IC50: 15.7 nM

## O=C(O)COc1cccc(CN(Cc2ccc(-n3cccn3)cc2)S(=O)(=O)c2cccnc2)c1 [drawing 60]
[1]; [7]
  ΔΔEmax (mm Hg): −2.6 mm Hg
[1]; [9]
  ΔΔEmax (%): −6%
[1]; [8]
  Tmax: 4 h

## CC(C)OC(=O)COc1cccc(CN(Cc2ccc(-c3nccs3)cc2)S(=O)(=O)c2cccnc2)c1 [Example 16]
[2]
  EC50: 0.85 nM
[3]
  IC50: 3 nM

## CC(C)OC(=O)CCc1cccc(CN(Cc2ccc(-c3ncccn3)cc2)S(=O)(=O)c2ccccn2)c1 [Example 15]
[2]
  EC50: 4.9 nM
[3]
  IC50: < 10 nM

## CC(C)OC(=O)CCc1cccc(CN(Cc2ccc(-n3cccn3)cc2)S(=O)(=O)c2nccs2)c1 [Example 25]
[2]
  EC50: 5.9 nM
[3]
  IC50: < 10 nM

## O=C(O)CCCCCCC1C(=O)CC[C@@H]1CCc1cccc(C(F)(F)F)c1 (some centres unmarked)
[1]; [6]
  change in vivo at 0.1 %: -9%
[1]; [7]
  ΔΔEmax (mm Hg): −3.7 mm Hg
[1]; [8]
  Tmax: 6 h

## CC(C)OC(=O)COc1cccc(CN(Cc2ccc(-c3ncccn3)cc2)S(=O)(=O)c2cccnc2)c1 [Example 23]
[2]
  EC50: 5.4 nM
[3]
  IC50: 22 nM

## O=C(O)COc1cccc(CN(Cc2ccc(-c3ncccn3)cc2)S(=O)(=O)c2ccccn2)c1
[1]; [7]
  ΔΔEmax (mm Hg): ns
[1]; [9]
  ΔΔEmax (%): ns

## CC(C)OC(=O)Cc1cccc(CN(Cc2ccc(-c3nccs3)cc2)S(=O)(=O)c2cccnc2)c1 [Example 21]
[2]
  EC50: 2.2 nM
[3]
  IC50: 2.2 nM

## CC(C)(C)OC(=O)c1ccc(CCCN(CCCOc2cc(Cl)cc(Cl)c2)S(C)(=O)=O)s1 [Example 10]
[2]
  EC50: 8.15 nM
[3]
  IC50: 3.22 nM

## CC(C)OC(=O)CCc1cccc(CN(Cc2ccc(-c3ncccn3)cc2)S(=O)(=O)c2ccccc2)c1 [Example 14]
[2]
  EC50: 3.1 nM
[3]
  IC50: < 10 nM

## CC(C)OC(=O)c1csc(CCCN(CCOc2cc(Cl)cc(Cl)c2)S(C)(=O)=O)c1
[1]; isopropylesters, OHT primates, both eyes
  ΔΔEmax (mmHg): −8 (both eyes) mmHg
[1]; [10]
  Tmax: 4 to 6 h

## CC(C)OC(=O)c1ccc(CCCN(CCCOc2cc(Cl)cc(Cl)c2)S(C)(=O)=O)s1 [drawing 62]
[1]; isopropylesters, OHT primates, OHT eye
  ΔΔEmax (%): ns
[1]; isopropylesters, OHT primates, OHT eye, 0.1 mg/ml topical
  ΔΔEmax (mmHg): ns
[1]; [10]
  Tmax (h): ns

## CC(C)(C)OC(=O)CCc1cccc(CN(Cc2ccc(-c3cccnc3)cc2)S(=O)(=O)c2ccccc2)c1 [Example 4]
[2]
  EC50: 5.35 nM
[3]
  IC50: < 12.4 nM

## CC(C)OC(=O)CCc1cccc(CN(Cc2ccc(-c3ncccn3)cc2)S(=O)(=O)c2cccnc2)c1 [Example 13]
[2]
  EC50: 3.1 nM
[3]
  IC50: < 10 nM

## O=C(O)CCc1cccc(CN(Cc2ccc(-c3cccnc3)cc2)S(=O)(=O)c2ccccc2)c1
[1]; [6]
  change in vivo at 0.1 %: -10%
[1]; [7]
  ΔΔEmax (mm Hg): −3.0 mm Hg
[1]; [8]
  Tmax: 4 h

## O=C(O)CCc1cccc(CN(Cc2ccc(-c3cccnc3)cc2)S(=O)(=O)c2cccnc2)c1
[1]; [7]
  ΔΔEmax (mm Hg): ns
[1]; [9]
  ΔΔEmax (%): ns

## CC(C)OC(=O)c1csc(CCCN(CCOc2cc(Cl)cc(Cl)c2)S(C)(=O)=O)n1 [Example 7]
[2]
  EC50: 18 nM
[3]
  IC50: 5.3 nM

## CC(C)OC(=O)c1csc(CCCN(CCCc2cccc(Cl)c2)S(C)(=O)=O)n1 [Example 24]
[2]
  EC50: 54 nM
[3]
  IC50: 6.64 nM

## CC(C)OC(=O)COc1cccc(CN(Cc2ccc(-n3cccn3)cc2)S(=O)(=O)c2ccccn2)c1 [Example 18]
[2]
  EC50: 12 nM
[3]
  IC50: < 10 nM

## CC(C)OC(=O)c1ccc(CCCN(CCOc2cc(Cl)cc(Cl)c2)S(C)(=O)=O)s1 [Example 5]
[2]
  EC50: 4.8 nM
[3]
  IC50: 4.42 nM

## CCOC(=O)COc1cccc(CN(Cc2ccc(-n3cccn3)cc2)S(=O)(=O)c2cccnc2)c1 [Example 9]
[2]
  EC50: 10 nM
[3]
  IC50: 1.48 nM

## CC(C)OC(=O)COc1cccc(CN(Cc2ccc(-c3ccccn3)cc2)S(=O)(=O)c2cccnc2)c1 [Example 19]
[2]
  EC50: 4.1 nM
[3]
  IC50: 7.6 nM

## CC(C)OC(=O)COc1cccc(CN(Cc2ccc(-n3cccn3)cc2)S(=O)(=O)c2cccnc2)c1 [Example 1, isopropyl [3-({[4-(1H-pyrazol-1-yl)benzyl](pyridin-3-yl-sulfonyl)amino}methyl)phenoxy]acetate]
[2]
  EC50: 1.48 nM
[3]
  IC50: 10 nM
[4]
  ΔΔEmax (%): −33% @ 6 h
  ΔΔEmax (mmHg): −7.0 1.2 mmHg @ 6 h
[5]
  solid form: crystalline form

## CC(C)(C)OC(=O)COc1cccc(CN(Cc2ccc(-n3cccn3)cc2)S(=O)(=O)c2cccnc2)c1 [Example C12, t-butyl [3-({[4-(1H-pyrazol-1-yl)benzyl](pyridin-3-yl-sulfonyl)amino}methyl)phenoxy]acetate, reference compound]
[2]
  EC50: 1.48 nM
[3]
  IC50: 10 nM
[4]
  ΔΔEmax (%): −34% @ 6 h
  ΔΔEmax (mmHg): −8.0 1.7 mmHg @ 6 h
[5]
  solid form: gummy material

## CC(C)OC(=O)CCc1cccc(CN(Cc2ccc(-c3cccnc3)cc2)S(=O)(=O)c2ccccc2)c1 [Example 8]
[2]
  EC50: 5.35 nM
[3]
  IC50: < 12.4 nM

## CC(C)OC(=O)CCc1cccc(CN(Cc2ccc(-n3cccn3)cc2)S(=O)(=O)c2cccnc2)c1 [Example 20]
[2]
  EC50: 51.5 nM
[3]
  IC50: < 10 nM

## CS(=O)(=O)N(CCCOc1cc(Cl)cc(Cl)c1)CCCc1ccc(C(=O)O)s1
[1]; [6]
  change in vivo at 0.1 %: -11%
[1]; [7]
  ΔΔEmax (mm Hg): −4.4 mm Hg
[1]; [8]
  Tmax: 2 h

## CC(C)OC(=O)CCc1cccc(CN(Cc2ccc(-c3ncccn3)cc2)S(=O)(=O)c2nccs2)c1 [Example 26]
[2]
  EC50: 6.4 nM
[3]
  IC50: < 10 nM

## CC(C)OC(=O)COc1cccc(CN(Cc2ccc(-c3nccs3)cc2)S(=O)(=O)c2cn(C)cn2)c1 [Example 12]
[2]
  EC50: 12 nM
[3]
  IC50: 26 nM

## Cn1cnc(S(=O)(=O)N(Cc2ccc(-c3nccs3)cc2)Cc2cccc(OCC(=O)O)c2)c1
[1]; [7]
  ΔΔEmax (mm Hg): ns
[1]; [9]
  ΔΔEmax (%): ns
